Values after ≈ are worked out from the molar mass of the structure shown. Active and inactive are the calls of the source. The rule behind the calls is not given here.
Columns and labels:
[1] = target: Tyrosine-protein kinase SYK (Homo sapiens, UniProt P43405); assay: Inhibition of SYK (unknown origin) using FITC-labeled Blk/Lyntide substrate and ATP by microfluidic mobility shift assay
[2] = Stability in human microsomes; type: ADME, Microsome
[3] = Stability in mouse microsomes; type: ADME, Microsome
[4] = Kinetic solubility in phosphate buffer at pH 7.4 incubated for 1 hr at room temperature by LC-UV or LC-MS/MS method; type: physicochemical; conditions: read-out: Kinetic_solubility
[5] = target: T1, Tyrosine-protein kinase BTK (Homo sapiens, UniProt Q06187); assay: Inhibition of N-terminal DYKDDDDK tagged and biotinylated BTK activated form (unknown origin) using FITC-labeled Srctide substrate and ATP by microfluidic mobility shift assay
T1 sequence (Q06187 whole entry): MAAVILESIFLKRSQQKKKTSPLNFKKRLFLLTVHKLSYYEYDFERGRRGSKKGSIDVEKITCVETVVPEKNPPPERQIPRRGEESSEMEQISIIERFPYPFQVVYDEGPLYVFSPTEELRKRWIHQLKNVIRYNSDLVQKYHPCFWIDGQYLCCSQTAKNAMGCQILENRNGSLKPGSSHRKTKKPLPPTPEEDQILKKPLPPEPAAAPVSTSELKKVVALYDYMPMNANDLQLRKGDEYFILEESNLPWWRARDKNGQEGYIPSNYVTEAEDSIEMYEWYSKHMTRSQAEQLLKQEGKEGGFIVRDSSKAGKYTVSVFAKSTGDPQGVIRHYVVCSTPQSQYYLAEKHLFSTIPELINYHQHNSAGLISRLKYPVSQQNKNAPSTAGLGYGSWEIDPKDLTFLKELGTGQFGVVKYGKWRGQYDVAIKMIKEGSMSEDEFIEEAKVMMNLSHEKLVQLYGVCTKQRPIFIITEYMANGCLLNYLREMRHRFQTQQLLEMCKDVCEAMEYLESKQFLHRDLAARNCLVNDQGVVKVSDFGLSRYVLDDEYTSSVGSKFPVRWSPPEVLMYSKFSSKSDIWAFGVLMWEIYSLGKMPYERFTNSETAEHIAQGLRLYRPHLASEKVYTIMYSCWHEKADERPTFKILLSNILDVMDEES

[6] = target: T1, Tyrosine-protein kinase BTK; assay: Inhibition of His-tagged lambda phosphatase pre-treated N-terminal DYKDDDDK tagged and biotinylated BTK unactivated form (unknown origin) using FITC-labeled Srctide substrate and ATP by microfluidic mobility shift assay
[7] = Apparent permeability in human Caco2 cells; type: ADME, cell-based; conditions: Caco-2
[8] = target: T1, Tyrosine-protein kinase BTK; assay: Inhibition of BTK (unknown origin) using FITC-labeled Srctide substrate and ATP by microfluidic mobility shift assay
[9] = MRT (0 to infinity) in ICR mouse at 2 mg/kg, iv; type: ADME, organism-based; conditions: in vivo
[10] = AUC (0 to infinity) in ICR mouse at 2 mg/kg, iv; type: ADME, organism-based; set-up: dose 2 mg/kg, route intravenous, time infinity; conditions: in vivo
[11] = Apparent volume of distribution in ICR mouse at 2 mg/kg, iv; type: ADME, organism-based; conditions: in vivo, read-out: Vz
[12] = AUC (0 to t) in ICR mouse at 2 mg/kg, iv; type: ADME, organism-based; conditions: in vivo
[13] = Oral bioavailability in ICR mouse at 10 mg/kg; type: ADME, organism-based; conditions: in vivo
[14] = Tmax in ICR mouse at 2 mg/kg, iv; type: ADME, organism-based; conditions: in vivo
[15] = Tmax in ICR mouse at 10 mg/kg, po; type: ADME, organism-based; conditions: in vivo
[16] = MRT (0 to infinity) in ICR mouse at 10 mg/kg, po; type: ADME, organism-based; conditions: in vivo
[17] = AUC (0 to t) in ICR mouse at 10 mg/kg, po; type: ADME, organism-based; conditions: in vivo
[18] = target: T2, Cytoplasmic tyrosine-protein kinase BMX (Homo sapiens) (UniProt P51813); assay: Inhibition of N-terminal GST-fused human full length BMX at 0.3 uM
T2 sequence (whole entry): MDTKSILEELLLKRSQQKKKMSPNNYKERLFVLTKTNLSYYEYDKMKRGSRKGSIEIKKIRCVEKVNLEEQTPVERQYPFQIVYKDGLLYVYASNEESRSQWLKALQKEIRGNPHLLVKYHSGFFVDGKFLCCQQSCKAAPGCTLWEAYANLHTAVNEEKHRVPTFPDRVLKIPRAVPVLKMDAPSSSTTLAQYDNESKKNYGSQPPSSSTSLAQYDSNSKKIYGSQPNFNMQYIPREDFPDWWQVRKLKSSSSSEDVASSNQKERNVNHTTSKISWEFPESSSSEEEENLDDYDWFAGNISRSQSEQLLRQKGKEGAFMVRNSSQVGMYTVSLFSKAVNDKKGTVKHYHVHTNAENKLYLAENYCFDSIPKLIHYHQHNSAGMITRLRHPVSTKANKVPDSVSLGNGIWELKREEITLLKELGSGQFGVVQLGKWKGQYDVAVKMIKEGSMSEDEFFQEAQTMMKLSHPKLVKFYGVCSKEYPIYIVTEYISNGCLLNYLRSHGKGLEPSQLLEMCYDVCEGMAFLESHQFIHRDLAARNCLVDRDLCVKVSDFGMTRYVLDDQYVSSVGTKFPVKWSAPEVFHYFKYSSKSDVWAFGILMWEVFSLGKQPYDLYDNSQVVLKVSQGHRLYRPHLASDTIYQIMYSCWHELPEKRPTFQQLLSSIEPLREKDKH

[19] = Half life in ICR mouse at 2 mg/kg, iv; type: ADME, organism-based; conditions: in vivo
Mus musculus = assay: Inhibition of passive cutaneous anaphylaxis reaction in anti-DNP IgE sensitized mouse model of passive cutaneous anaphylaxis at 30 mg/kg, po dosed 46 hrs before DNP-BSA/dye mixture injection and measured after 30 mins; type: functional
[20] = AUC (0 to infinity) in ICR mouse at 10 mg/kg, po; type: ADME, organism-based; set-up: dose 10 mg/kg, time infinity, route oral; conditions: in vivo
[21] = Clearance in ICR mouse at 2 mg/kg, iv; type: ADME, organism-based; conditions: in vivo
[22] = target: T1, Tyrosine-protein kinase BTK; assay: Inhibition of anti-IgM antibody stimulated BTK Tyr223 autophosphorylation in human Ramos cells at 30 nM pre-incubated for 1 hr followed by anti-IgM stimulation for 10 mins by Western blotting; type: cell-based
[23] = Cmax in ICR mouse at 2 mg/kg, iv; type: ADME, organism-based; set-up: dose 2 mg/kg, route intravenous; conditions: in vivo
[24] = target: Voltage-gated inwardly rectifying potassium channel KCNH2 (Homo sapiens, UniProt Q12809); assay: Inhibition of human ERG
Sequence of Voltage-gated inwardly rectifying potassium channel KCNH2 (Q12809 whole entry): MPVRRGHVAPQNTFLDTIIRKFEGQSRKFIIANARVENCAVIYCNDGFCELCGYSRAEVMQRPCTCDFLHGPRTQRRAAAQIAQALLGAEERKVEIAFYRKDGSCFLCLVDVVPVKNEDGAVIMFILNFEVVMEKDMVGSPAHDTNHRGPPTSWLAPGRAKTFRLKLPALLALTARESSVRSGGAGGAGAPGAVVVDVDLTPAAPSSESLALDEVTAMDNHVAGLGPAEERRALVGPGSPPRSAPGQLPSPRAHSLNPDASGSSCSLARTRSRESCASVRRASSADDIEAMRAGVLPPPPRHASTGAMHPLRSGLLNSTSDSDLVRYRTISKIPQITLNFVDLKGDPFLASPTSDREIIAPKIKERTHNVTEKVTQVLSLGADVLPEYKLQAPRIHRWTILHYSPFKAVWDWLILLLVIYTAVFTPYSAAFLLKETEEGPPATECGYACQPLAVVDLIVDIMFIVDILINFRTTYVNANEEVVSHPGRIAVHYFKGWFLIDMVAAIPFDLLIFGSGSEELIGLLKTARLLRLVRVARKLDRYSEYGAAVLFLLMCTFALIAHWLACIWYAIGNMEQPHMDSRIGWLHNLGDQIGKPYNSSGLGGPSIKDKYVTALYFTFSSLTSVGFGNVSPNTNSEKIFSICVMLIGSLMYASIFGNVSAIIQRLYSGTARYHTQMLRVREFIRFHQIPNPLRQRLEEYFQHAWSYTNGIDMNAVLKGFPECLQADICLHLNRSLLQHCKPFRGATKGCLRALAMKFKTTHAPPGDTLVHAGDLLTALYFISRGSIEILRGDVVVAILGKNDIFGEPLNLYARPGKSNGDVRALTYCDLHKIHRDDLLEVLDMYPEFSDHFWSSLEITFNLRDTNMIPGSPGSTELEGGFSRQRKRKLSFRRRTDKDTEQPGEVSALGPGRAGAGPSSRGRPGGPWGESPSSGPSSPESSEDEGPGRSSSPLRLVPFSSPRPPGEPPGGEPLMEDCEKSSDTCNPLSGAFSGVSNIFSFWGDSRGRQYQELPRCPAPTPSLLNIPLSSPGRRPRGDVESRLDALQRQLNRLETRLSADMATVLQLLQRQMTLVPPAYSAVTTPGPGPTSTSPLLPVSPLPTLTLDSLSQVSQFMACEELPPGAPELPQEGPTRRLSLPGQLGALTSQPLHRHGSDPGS

[25] = Cmax in ICR mouse at 10 mg/kg, po; type: ADME, organism-based; set-up: dose 10 mg/kg, route oral; conditions: in vivo
[26] = target: T3, Tyrosine-protein kinase Tec (Homo sapiens) (UniProt P42680); assay: Inhibition of N-terminal GST-fused human TEC catalytic domain (359 to 631 amino acids) at 0.3 uM
T3 sequence (whole entry): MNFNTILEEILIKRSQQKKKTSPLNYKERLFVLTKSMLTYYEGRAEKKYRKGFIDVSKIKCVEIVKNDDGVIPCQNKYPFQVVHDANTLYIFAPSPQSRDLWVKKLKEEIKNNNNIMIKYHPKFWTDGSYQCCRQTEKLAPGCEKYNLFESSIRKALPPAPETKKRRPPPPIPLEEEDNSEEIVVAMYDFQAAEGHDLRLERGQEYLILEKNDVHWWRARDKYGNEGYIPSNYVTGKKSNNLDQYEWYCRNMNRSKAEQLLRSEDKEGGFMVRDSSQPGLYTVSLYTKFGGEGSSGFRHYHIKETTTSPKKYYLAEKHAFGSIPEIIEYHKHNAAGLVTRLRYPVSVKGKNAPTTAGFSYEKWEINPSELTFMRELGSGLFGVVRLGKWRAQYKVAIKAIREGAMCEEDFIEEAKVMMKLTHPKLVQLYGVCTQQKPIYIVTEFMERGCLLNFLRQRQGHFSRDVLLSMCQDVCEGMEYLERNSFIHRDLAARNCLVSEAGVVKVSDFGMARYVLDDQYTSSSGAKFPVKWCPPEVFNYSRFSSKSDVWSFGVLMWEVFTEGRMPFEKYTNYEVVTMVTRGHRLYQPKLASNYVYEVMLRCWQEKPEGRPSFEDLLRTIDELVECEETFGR

[27] = Half life in ICR mouse at 10 mg/kg, po; type: ADME, organism-based; conditions: in vivo

## Cc1c(NC(=O)c2ccc(C(C)(C)C)cc2)cccc1-c1ccnc(Nc2ccc(C(=O)N3CCOCC3)cc2)n1
[1]
  IC50: > 10000 nM
[2]
  Stability: Unstable
[3]
  Stability: Unstable

## Nc1cc(-c2cccc(-n3ccc4cc(C5CC5)cc(F)c4c3=O)c2CO)nc(Nc2cnn(CC(F)F)c2)n1
[4]
  solubility kinetic at 1 h: 2.1 µM (≈ 1.15 µg/mL)
[5]
  IC50: 3.3 nM
[6]
  IC50: 0.2 nM
[7]
  Papp: 3.1 ×10⁻⁶ cm/s

## Cn1ccc(Nc2nc(N)cc(-c3cccc(-n4ccc5cc(C6CC6)cc(F)c5c4=O)c3CO)n2)c1
[5]
  IC50: 62 nM
[6]
  IC50: 17 nM

## CC(C)(C)n1cc(Nc2nc(N)cc(-c3cccc(-n4ccc5cc(C6CC6)cc(F)c5c4=O)c3CO)n2)cn1
[5]
  IC50: 11 nM
[6]
  IC50: 0.6 nM
[7]
  Papp: 5.7 ×10⁻⁶ cm/s

## CC(C)(C)c1ccc(C(=O)Nc2cccc(-c3ccnc(Nc4ccc5cn[nH]c5c4)n3)c2)cc1
[1]
  IC50: 360 nM
[8]
  IC50: 7300 nM

## COc1ccc(Nc2nc(N)cc(-c3cccc(-n4ccc5cc(C6CC6)cc(F)c5c4=O)c3CO)n2)cc1
[5]
  IC50: 39 nM
[6]
  IC50: 2.5 nM

## Nc1cc(-c2cccc(-n3ccc4cc(C5CC5)cc(F)c4c3=O)c2CO)nc(Nc2ccc(CN3CCOCC3)cc2)n1
[5]
  IC50: > 10000 nM
[6]
  IC50: 309 nM

## CN1CCN(c2ccc(Nc3nc(N)cc(-c4cccc(-n5ccc6cc(C7CC7)cc(F)c6c5=O)c4CO)n3)cc2)CC1
[5]
  IC50: 5.3 nM

## Cn1cc(Nc2nc(N)cc(-c3cccc(-n4ccc5cc(C6CC6)cc(F)c5c4=O)c3CO)n2)cc1C#N
[5]
  IC50: 20.2 nM

## COc1cc(Nc2nccc(-c3cccc(NC(=O)c4ccc(C(C)(C)C)cc4)c3C)n2)cc(OC)c1OC
[1]
  IC50: > 10000 nM
[2]
  Stability: Unstable
[8]
  IC50: 6.1 nM
[3]
  Stability: Unstable

## CC(=O)c1cc(Nc2nc(N)cc(-c3cccc(-n4ccc5cc(C6CC6)cc(F)c5c4=O)c3CO)n2)cn1C
[5]
  IC50: 5.9 nM

## CC(C)n1cc(Nc2nc(N)cc(-c3cccc(-n4ccc5cc(C6CC6)cc(F)c5c4=O)c3CO)n2)cn1
[4]
  solubility kinetic at 1 h: 4 µM (≈ 2.1 µg/mL)
[5]
  IC50: 2.6 nM
[6]
  IC50: 0.2 nM
[7]
  Papp: 3.7 ×10⁻⁶ cm/s

## Nc1cc(-c2cccc(-n3ccc4cc(C5CC5)cc(F)c4c3=O)c2CO)nc(Nc2cnn(C3CC3)c2)n1
[9]
  MRT inf: 1.36 h
[10]
  AUC(0-inf): 3170 ng·h/mL
[11]
  Vd: 1 L/kg
[12]
  AUC(0-t): 3150 ng·h/mL
[13]
  bioavailability: 120%
[14]
  Tmax: 4.98 min
[15]
  Tmax: 1 h
[16]
  MRT inf: 2.24 h
[4]
  solubility kinetic at 1 h: 9.8 µM (≈ 5.13 µg/mL)
[17]
  AUC(0-t): 18700 ng·h/mL
[18]
  inhibition: 70%
[19]
  half-life: 1.09 h
[5]
  IC50: 2.8 nM
Mus musculus
  inhibition in vivo at 30 mg/kg: 46%
[20]
  AUC(0-inf): 19100 ng·h/mL
[21]
  clearance: 10.5 mL/min/kg
[22]
  inhibition: Active
[23]
  Cmax: 2260 ng/mL
[24]
  inhibition (INH): Active
[7]
  Papp: 6.9 ×10⁻⁶ cm/s
[25]
  Cmax: 5940 ng/mL
[26]
  inhibition: 92%
[27]
  half-life: 1.31 h

## Nc1cc(-c2cccc(-n3ccc4cc(C5CC5)cc(F)c4c3=O)c2CO)nc(Nc2ccc(N3CCOCC3)cc2)n1
[5]
  IC50: 12.9 nM
[6]
  IC50: 0.6 nM

## Nc1cc(-c2cccc(-n3ccc4cc(C5CC5)cc(F)c4c3=O)c2CO)nc(Nc2cnn(CC3CC3)c2)n1
[4]
  solubility kinetic at 1 h: 6.3 µM (≈ 3.39 µg/mL)
[5]
  IC50: 3.4 nM
[7]
  Papp: 6.1 ×10⁻⁶ cm/s

## Nc1cc(-c2cccc(-n3ccc4cc(C5CC5)cc(F)c4c3=O)c2CO)nc(Nc2cn[nH]c2)n1
[5]
  IC50: 8.1 nM

## Cn1ccc(Nc2nc(N)cc(-c3cccc(-n4ccc5cc(C6CC6)cc(F)c5c4=O)c3CO)n2)n1
[5]
  IC50: 245 nM
[6]
  IC50: 13.9 nM

## Cn1cc(Nc2nc(N)cc(-c3cccc(-n4ccc5cc(C6CC6)cc(F)c5c4=O)c3CO)n2)cn1
[9]
  MRT inf: 1.13 h
[10]
  AUC(0-inf): 3480 ng·h/mL
[11]
  Vd: 0.93 L/kg
[12]
  AUC(0-t): 3460 ng·h/mL
[13]
  bioavailability: 73.7%
[14]
  Tmax: 4.98 min
[15]
  Tmax: 0.5 h
[16]
  MRT inf: 1.91 h
[4]
  solubility kinetic at 1 h: 18 µM (≈ 8.96 µg/mL)
[17]
  AUC(0-t): 12700 ng·h/mL
[19]
  half-life: 1.12 h
[5]
  IC50: 3.7 nM
[20]
  AUC(0-inf): 12800 ng·h/mL
[21]
  clearance: 9.67 mL/min/kg
[6]
  IC50: 0.4 nM
[22]
  inhibition: Active
[23]
  Cmax: 2950 ng/mL
[7]
  Papp: 6.3 ×10⁻⁶ cm/s
[25]
  Cmax: 4540 ng/mL
[27]
  half-life: 0.96 h

## CC(C)(C)c1ccc(C(=O)Nc2cccc(-c3ccnc(Nc4ccc5cc[nH]c5c4)n3)c2)cc1
[1]
  IC50: > 10000 nM
[2]
  Stability: Unstable
[8]
  IC50: 52 nM
[3]
  Stability: Unstable

## Cc1c(NC(=O)c2ccc(C(C)(C)C)cc2)cccc1-c1ccnc(Nc2ccc3[nH]ncc3c2)n1
[1]
  IC50: > 10000 nM
[2]
  Stability: Unstable
[8]
  IC50: 40 nM
[3]
  Stability: Unstable

## CCn1cc(Nc2nc(N)cc(-c3cccc(-n4ccc5cc(C6CC6)cc(F)c5c4=O)c3CO)n2)cn1
[5]
  IC50: 10 nM
[6]
  IC50: 0.4 nM
[7]
  Papp: 5.4 ×10⁻⁶ cm/s

## Nc1cc(-c2cccc(-n3ccc4cc(C5CC5)cc(F)c4c3=O)c2CO)nc(Nc2cnn(C3(CO)CC3)c2)n1
[5]
  IC50: 12 nM
[6]
  IC50: 0.6 nM
[7]
  Papp: 0.7 ×10⁻⁶ cm/s

## Cc1c(NC(=O)c2ccc(C(C)(C)C)cc2)cccc1-c1ccnc(Nc2ccc3cn[nH]c3c2)n1
[1]
  IC50: > 10000 nM
[2]
  Stability: Unstable
[8]
  IC50: 440 to 450 nM
[3]
  Stability: Unstable

Reference: ChEMBL document CHEMBL4177725, “Design and synthesis of novel pyrimidine analogs as highly selective, non-covalent BTK inhibitors” (Bioorg Med Chem Lett, 2018)
